Assays:
Assay type in all cases: in vivo
[1] = test system: Anagallis arvensis; test: Field trial post-emergence in maize: ANGAR; settings: 7-14 DAA; # = 2; g a.c./ha: PYR 300, MES 100, PYR + MES 300 + 90
Protocol: (§1) Herbicidal activity of herbicide compositions according to the first aspect of the present invention with regard to different types of unwanted vegetation was determined during trials performed on test fields (field trials). Individual compositions comprising pyridate and individual compositions comprising a defined 4-HPPD inhibitor are compared with a herbicide composition according to the invention comprising both pyridate and a defined 4-HPPD inhibitor. The expected activity of the combination of the active compounds pyridate and a defined 4-HPPD inhibitor is calculated according to above mentioned calculation method by Colby, in order to evaluate a synergistic effect between pyridate and a defined 4-HPPD inhibitor.
(§2) Herbicidal activity was determined by applying herbicide compositions on emerged unwanted vegetation on fields where maize was cultivated. Pyridate and a defined 4-HPPD inhibitor were applied as a tank mixture by mixing these active compounds prior to use in a spray tank. The corresponding mixture was in the form of a spray liquor. […] At a specified number of days after application (DAA), the degree of damage to the unwanted vegetation is rated in % of plants of unwanted vegetation that were killed, which was assessed by visually controlling the plants.

[2] = test system: Brassica napus (winter); test: Field trial post-emergence in maize: BRSNW; settings: # = 1, g a.c./ha: PYR 300, MES 100, PYR + MES 300 + 90
Protocol: as §1
(§3) Herbicidal activity was determined by applying herbicide compositions on emerged unwanted vegetation on fields where maize was cultivated. Pyridate and a defined 4-HPPD inhibitor were applied as a tank mixture by mixing these active compounds prior to use in a spray tank. The corresponding mixture was in the form of a spray liquor. Besides, spray liquors of individual compositions comprising pyridate and of individual compositions comprising a defined 4-HPPD inhibitor were used. Test plants of unwanted vegetation with a growth stage corresponding to BBCH 10-18 (according to the extended BBCH-scale) were sprayed with the active compound preparations such that particular desired amounts of active compounds are applied per unit area. Spray liquor was diluted with water to arrive at an application volume of 50 to 450 L/ha. At a specified number of days after application (DAA), the degree of damage to the unwanted vegetation is rated in % of plants of unwanted vegetation that were killed, which was assessed by visually controlling the plants.

[3] = test system: Digitaria sanguinalis; test: Field trial post-emergence in maize: DIGSA; settings: g a.c./ha: PYR 300, MES 100, PYR + MES 300 + 90
Protocol: as §1, §3

[4] = test system: Geranium sp.; test: Field trial post-emergence in maize: GERSS; settings: # = 1, g a.c./ha: PYR 300, MES 100, PYR + MES 300 + 90
Protocol: as §1, §3

[5] = test system: Poa annua; test: Field trial post-emergence in maize: POAAN; settings: for herbicidal effect (h.e.): g a.c./ha: PYR 300, MES 100, PYR + MES 300 + 90
Protocol: as §1, §3

[6] = test system: Sorghum halepense; test: Field trial post-emergence in maize: SORHA; settings: 7-14 DAA; # = 1; g a.c./ha: PYR 300, MES 100, PYR + MES 300 + 90
Protocol: as §1, §2

[7] = test system: Stellaria media; test: Field trial post-emergence in maize: STEME
Protocol: as §1, §3

[8] = test system: Thlaspi arvense; test: Field trial post-emergence in maize: THLAR; settings: # = 1, g a.c./ha: PYR 300, MES 100, PYR + MES 300 + 90
Protocol: as §1, §3

[9] = test system: Solanum nigrum; test: Examples 6-8 herbicidal effect: SOLNI; settings: 7 DAA
[10] = test system: Matricaria chamomilla; test: Examples 6-8 herbicidal effect: MATCH; settings: 7 DAA
[11] = test system: Poa annua; test: Examples 6-8 herbicidal effect: POAAN; settings: 7 DAA
[12] = test system: Chenopodium album; test: Examples 6-8 herbicidal effect: CHEAL; settings: 7 DAA
[13] = test system: unwanted vegetation (UVEG); test: Field trials Examples 1-5 (incl. Table 1), post-emergence on unwanted vegetation in maize; settings: 14-20 DAA
Protocol: as §1, §3

[14] = test system: Atriplex patula; test: Field trial post-emergence in maize: ATXPA
Protocol: as §1, §3
(§4) Example 1 concerns a herbicide composition comprising a combination of pyridate and mesotrione, which was applied post-emergence on unwanted vegetation on a field where maize was cultivated, according to the test conditions mentioned above.

[15] = test system: Convolvulus arvensis; test: Field trial post-emergence in maize: CONAR
Protocol: as §1, §3, §4

[16] = test system: Erodium ciconium; test: Field trial post-emergence in maize: EROCC
Protocol: as §1, §3, §4

[17] = test system: Kickxia elatine; test: Field trial post-emergence in maize: KICEL
Protocol: as §1, §3, §4

[18] = test system: Setaria verticillata; test: Field trial post-emergence in maize: SETVE
Protocol: as §1, §3, §4

[19] = test system: Viola arvensis; test: Field trial post-emergence in maize: VIOAR
Protocol: as §1, §3, §4

[20] = g a.c./ha: MES 50, PYR + SMO 300 + 800
[21] = g a.c./ha: MES 80, PYR + MES 300 + 50

CS(=O)(=O)c1ccc(C(=O)C2C(=O)CCCC2=O)c([N+](=O)[O-])c1 [MES, 2-(4-methylsulfonyl-2-nitrobenzoyl) cyclohexane-1,3-dione]
herbicidal effect (h.e.) [1]: 98%
herbicidal effect (h.e.) ([2]; 7-14 DAA): 98%
herbicidal effect (h.e.) ([2]; 18-28 DAA): 99%
herbicidal effect (h.e.) ([3]; 7-14 DAA, # = 2): 53%
herbicidal effect (h.e.) ([3]; 18-28 DAA, # = 2): 47%
herbicidal effect (h.e.) ([3]; 31-48 DAA, # = 1): 54%
herbicidal effect (h.e.) ([4]; 7-14 DAA): 44%
herbicidal effect (h.e.) ([4]; 18-28 DAA): 41%
herbicidal effect (h.e.) ([4]; 31-48 DAA): 31%
herbicidal effect (h.e.) ([5]; 7-14 DAA, # = 2): 39%
herbicidal effect (h.e.) ([5]; 18-28 DAA, # = 3): 36%
herbicidal effect (h.e.) ([5]; 31-48 DAA, # = 2): 27%
MES h.e. ([5]; POAAN 14-20 DAA 45 g a.c./ha): 24%
MES h.e. ([5]; POAAN 14-20 DAA 90 g a.c./ha): 48%
MES h.e. ([5]; POAAN 14-20 DAA 135 g a.c./ha): 58%
MES h.e. ([5]; POAAN 24-31 DAA 45 g a.c./ha): 17%
MES h.e. ([5]; POAAN 24-31 DAA 90 g a.c./ha): 22%
MES h.e. ([5]; POAAN 24-31 DAA 135 g a.c./ha): 38%
herbicidal effect (h.e.) [6]: 42%
herbicidal effect (h.e.) ([7]; 18-28 DAA, # = 4, g a.c./ha: PYR 300, MES 100, PYR + MES 300 + 90): 98%
MES h.e. ([7]; STEME 14-20 DAA 45 g a.c./ha): 78%
MES h.e. ([7]; STEME 14-20 DAA 90 g a.c./ha): 93%
MES h.e. ([7]; STEME 14-20 DAA 135 g a.c./ha): 93%
MES h.e. ([7]; STEME 24-31 DAA 45 g a.c./ha): 70%
MES h.e. ([7]; STEME 24-31 DAA 90 g a.c./ha): 87%
MES h.e. ([7]; STEME 24-31 DAA 135 g a.c./ha): 93%
herbicidal effect (h.e.) ([8]; 7-14 DAA): 76%
herbicidal effect (h.e.) ([8]; 18-28 DAA): 97%
herbicidal effect (h.e.) [9, 20]: 67%
herbicidal effect (h.e.) [9, 21]: 54%
herbicidal effect (h.e.) [10, 20]: 25%
herbicidal effect (h.e.) [10, 21]: 53%
herbicidal effect (h.e.) [11, 20]: 0%
herbicidal effect (h.e.) [11, 21]: 3%
herbicidal effect (h.e.) [12, 20]: 77%
herbicidal effect (h.e.) [12, 21]: 92%
MES h.e. (%) ([13]; VIOAR (Viola arvensis), # = 3, first VIOAR block (r259-264), MES 135 g a.c./ha): 98%
MES h.e. (%) ([13]; VIOAR, # = 3, second VIOAR block (r265-272), MES 45 g a.c./ha): 70%
MES h.e. (%) ([13]; VIOAR, # = 3, second VIOAR block (r265-272), MES 90 g a.c./ha): 84%
MES h.e. (%) ([13]; VIOAR, # = 3, second VIOAR block (r265-272), MES 135 g a.c./ha): 87%
MES h.e. ([14]; ATXPA 24-31 DAA 90 g a.c./ha): 97%
MES h.e. ([14]; ATXPA 24-31 DAA 135 g a.c./ha): 97%
MES h.e. ([15]; CONAR 14-20 DAA 45 g a.c./ha): 40%
MES h.e. ([15]; CONAR 14-20 DAA 90 g a.c./ha): 68%
MES h.e. ([15]; CONAR 14-20 DAA 135 g a.c./ha): 83%
MES h.e. ([15]; CONAR 24-31 DAA 135 g a.c./ha): 80%
MES h.e. ([16]; EROCC 14-20 DAA 90 g a.c./ha): 32%
MES h.e. ([16]; EROCC 14-20 DAA 135 g a.c./ha): 33%
MES h.e. ([17]; KICEL 14-20 DAA 45 g a.c./ha): 0%
MES h.e. ([17]; KICEL 14-20 DAA 90 g a.c./ha): 8%
MES h.e. ([17]; KICEL 14-20 DAA 135 g a.c./ha): 0%
MES h.e. ([17]; KICEL 24-31 DAA 45 g a.c./ha): 0%
MES h.e. ([17]; KICEL 24-31 DAA 90 g a.c./ha): 0%
MES h.e. ([17]; KICEL 24-31 DAA 135 g a.c./ha): 0%
MES h.e. ([18]; SETVE 14-20 DAA 45 g a.c./ha): 21%
MES h.e. ([18]; SETVE 14-20 DAA 90 g a.c./ha): 41%
MES h.e. ([18]; SETVE 14-20 DAA 135 g a.c./ha): 55%
MES h.e. ([18]; SETVE 24-31 DAA 45 g a.c./ha): 31%
MES h.e. ([18]; SETVE 24-31 DAA 90 g a.c./ha): 37%
MES h.e. ([18]; SETVE 24-31 DAA 135 g a.c./ha): 58%
MES h.e. ([19]; VIOAR 14-20 DAA 45 g a.c./ha): 84%
MES h.e. ([19]; VIOAR 14-20 DAA 90 g a.c./ha): 95%
MES h.e. ([19]; VIOAR 14-20 DAA 135 g a.c./ha): 98%

From US12396459B2, “Synergistically effective herbicide composition comprising pyridate and at least one defined 4-HPPD inhibitor” (BELCHIM CROP PROTECTION NV, priority 2018, dated 2025)
